Values joined by “and” are separate entries in the source; they are usually repeats but may differ in a detail not shown here. Identical values can stand only once.
Experiments:
CAMK1b = CAMK1b (Homo sapiens, UniProt Q6P2M8); conditions: 1 μM; Run 1, Run 2
c-Kit = c-Kit (Homo sapiens, UniProt P10721); assay: biochemical; conditions: read-out: % enzyme activity, 1 μM; Run 1, Run 2
GRK2 = biological target: T1, GRK2 (Homo sapiens, UniProt P25098); conditions: 1 μM; Run 1, Run 2
T1 sequence (P25098 1-689): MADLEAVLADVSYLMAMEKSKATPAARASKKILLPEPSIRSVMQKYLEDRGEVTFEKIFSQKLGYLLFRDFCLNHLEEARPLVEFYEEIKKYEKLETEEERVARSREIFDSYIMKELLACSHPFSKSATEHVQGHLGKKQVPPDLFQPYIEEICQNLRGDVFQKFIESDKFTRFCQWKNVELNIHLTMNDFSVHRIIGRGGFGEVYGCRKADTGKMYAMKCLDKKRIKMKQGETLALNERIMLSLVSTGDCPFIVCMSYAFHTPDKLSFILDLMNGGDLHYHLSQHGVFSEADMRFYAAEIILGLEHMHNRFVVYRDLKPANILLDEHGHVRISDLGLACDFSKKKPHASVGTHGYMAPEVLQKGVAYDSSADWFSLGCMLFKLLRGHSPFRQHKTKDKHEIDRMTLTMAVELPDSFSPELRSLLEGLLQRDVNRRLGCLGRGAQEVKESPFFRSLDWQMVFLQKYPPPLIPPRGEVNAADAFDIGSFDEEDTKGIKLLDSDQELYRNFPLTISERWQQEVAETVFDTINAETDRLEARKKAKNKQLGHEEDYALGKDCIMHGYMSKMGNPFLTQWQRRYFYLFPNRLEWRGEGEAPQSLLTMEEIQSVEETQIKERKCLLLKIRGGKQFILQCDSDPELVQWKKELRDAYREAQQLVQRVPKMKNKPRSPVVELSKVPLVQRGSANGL

MST2/STK3 = biological target: T2, MST2/STK3 (Homo sapiens, UniProt Q13188); assay: biochemical; conditions: read-out: % enzyme activity, 1 μM; Run 1, Run 2
T2 sequence (Q13188 1-491): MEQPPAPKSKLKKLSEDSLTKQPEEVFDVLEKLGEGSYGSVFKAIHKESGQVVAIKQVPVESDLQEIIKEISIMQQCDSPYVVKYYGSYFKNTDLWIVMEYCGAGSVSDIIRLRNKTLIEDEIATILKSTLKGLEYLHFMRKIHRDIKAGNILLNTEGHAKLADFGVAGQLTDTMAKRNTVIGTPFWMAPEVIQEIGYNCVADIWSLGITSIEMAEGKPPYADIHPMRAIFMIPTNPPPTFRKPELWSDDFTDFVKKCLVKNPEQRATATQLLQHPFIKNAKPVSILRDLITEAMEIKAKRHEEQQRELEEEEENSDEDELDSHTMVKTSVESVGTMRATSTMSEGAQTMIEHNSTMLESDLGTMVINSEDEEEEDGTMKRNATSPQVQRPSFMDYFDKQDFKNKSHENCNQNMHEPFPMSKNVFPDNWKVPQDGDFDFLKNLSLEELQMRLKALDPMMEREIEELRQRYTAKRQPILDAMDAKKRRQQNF

RAF1 = RAF1 (Homo sapiens, UniProt P04049); assay: biochemical; conditions: read-out: % enzyme activity, 1 μM; Run 1, Run 2
MEKK1 = MEKK1 (Homo sapiens, UniProt Q13233); conditions: 1 μM; Run 1, Run 2
CDK16/cyclin Y (PCTAIRE) = CDK16/cyclin Y (PCTAIRE) (Homo sapiens, UniProt Q00536); conditions: 1 μM; Run 1, Run 2
STK25/YSK1 = STK25/YSK1 (Homo sapiens, UniProt O00506); conditions: 1 μM; Run 1, Run 2
p70S6Kb/RPS6KB2 = p70S6Kb/RPS6KB2 (Homo sapiens, UniProt Q9UBS0); conditions: 1 μM; Run 1, Run 2
CDK2/cyclin E2 = CDK2/cyclin E2 (Homo sapiens, UniProt P24941); assay: biochemical; conditions: read-out: % enzyme activity, 1 μM; Run 1, Run 2
PKCepsilon = biological target: T3, PKCepsilon (Homo sapiens, UniProt Q02156); assay: biochemical; conditions: read-out: % enzyme activity, 1 μM; Run 1, Run 2
T3 sequence (Q02156 1-737): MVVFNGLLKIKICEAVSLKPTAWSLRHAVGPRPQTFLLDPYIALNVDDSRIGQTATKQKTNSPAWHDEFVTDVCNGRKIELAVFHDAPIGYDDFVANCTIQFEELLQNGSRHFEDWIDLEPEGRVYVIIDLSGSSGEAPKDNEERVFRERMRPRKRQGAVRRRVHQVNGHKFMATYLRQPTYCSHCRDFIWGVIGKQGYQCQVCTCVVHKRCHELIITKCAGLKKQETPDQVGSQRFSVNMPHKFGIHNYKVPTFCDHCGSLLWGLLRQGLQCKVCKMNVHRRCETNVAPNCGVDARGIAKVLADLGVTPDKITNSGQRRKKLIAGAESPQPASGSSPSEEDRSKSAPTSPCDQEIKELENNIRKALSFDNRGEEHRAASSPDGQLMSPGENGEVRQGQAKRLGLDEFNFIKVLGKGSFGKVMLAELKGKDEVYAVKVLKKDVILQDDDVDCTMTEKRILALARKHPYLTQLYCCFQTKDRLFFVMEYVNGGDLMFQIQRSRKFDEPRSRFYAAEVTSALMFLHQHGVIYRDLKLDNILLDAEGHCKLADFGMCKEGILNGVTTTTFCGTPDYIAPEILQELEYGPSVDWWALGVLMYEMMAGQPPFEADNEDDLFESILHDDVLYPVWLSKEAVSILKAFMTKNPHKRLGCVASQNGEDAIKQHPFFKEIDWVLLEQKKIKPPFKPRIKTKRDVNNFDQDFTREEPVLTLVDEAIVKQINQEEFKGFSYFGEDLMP

ERK2/MAPK1 = ERK2/MAPK1 (Homo sapiens, UniProt P28482); conditions: 1 μM; Run 1, Run 2
ERN2/IRE2 = ERN2/IRE2 (Homo sapiens, UniProt Q76MJ5); assay: biochemical; conditions: read-out: % enzyme activity, 1 μM; Run 1, Run 2
Sequence of ERN2/IRE2 (Q76MJ5 35-926): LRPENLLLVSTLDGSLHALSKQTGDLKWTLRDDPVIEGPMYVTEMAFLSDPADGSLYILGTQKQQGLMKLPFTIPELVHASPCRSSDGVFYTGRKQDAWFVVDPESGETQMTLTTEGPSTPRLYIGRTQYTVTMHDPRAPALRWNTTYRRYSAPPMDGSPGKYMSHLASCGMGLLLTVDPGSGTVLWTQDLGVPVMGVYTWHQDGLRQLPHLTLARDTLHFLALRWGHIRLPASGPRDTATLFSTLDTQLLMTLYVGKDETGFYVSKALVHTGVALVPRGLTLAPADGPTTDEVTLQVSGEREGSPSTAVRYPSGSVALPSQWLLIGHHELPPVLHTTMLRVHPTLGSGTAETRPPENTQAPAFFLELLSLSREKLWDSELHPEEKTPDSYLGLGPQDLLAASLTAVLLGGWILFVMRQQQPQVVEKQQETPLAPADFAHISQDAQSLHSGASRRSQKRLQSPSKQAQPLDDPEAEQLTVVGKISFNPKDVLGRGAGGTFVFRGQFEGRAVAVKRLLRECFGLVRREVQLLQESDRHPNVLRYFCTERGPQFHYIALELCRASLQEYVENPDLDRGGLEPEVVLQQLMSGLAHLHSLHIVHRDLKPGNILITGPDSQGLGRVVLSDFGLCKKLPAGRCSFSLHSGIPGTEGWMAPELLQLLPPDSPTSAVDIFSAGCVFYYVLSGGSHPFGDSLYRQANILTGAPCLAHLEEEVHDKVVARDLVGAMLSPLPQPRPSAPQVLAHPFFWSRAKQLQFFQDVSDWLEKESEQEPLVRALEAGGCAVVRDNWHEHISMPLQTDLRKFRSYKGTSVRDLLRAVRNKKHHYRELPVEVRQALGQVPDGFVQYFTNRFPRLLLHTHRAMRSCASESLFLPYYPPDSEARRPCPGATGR

Sequence of ERK2/MAPK1 (P28482 whole entry): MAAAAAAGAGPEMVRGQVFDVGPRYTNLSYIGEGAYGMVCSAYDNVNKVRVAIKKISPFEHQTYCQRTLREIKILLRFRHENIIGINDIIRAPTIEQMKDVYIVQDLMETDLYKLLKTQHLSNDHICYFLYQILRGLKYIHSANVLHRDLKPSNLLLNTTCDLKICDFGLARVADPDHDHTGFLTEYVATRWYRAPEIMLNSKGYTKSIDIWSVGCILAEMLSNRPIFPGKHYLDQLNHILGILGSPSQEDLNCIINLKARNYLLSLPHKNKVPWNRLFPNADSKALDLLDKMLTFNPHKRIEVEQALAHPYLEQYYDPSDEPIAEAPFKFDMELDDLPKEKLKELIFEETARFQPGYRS
Sequence of CAMK1b (Q6P2M8 whole entry): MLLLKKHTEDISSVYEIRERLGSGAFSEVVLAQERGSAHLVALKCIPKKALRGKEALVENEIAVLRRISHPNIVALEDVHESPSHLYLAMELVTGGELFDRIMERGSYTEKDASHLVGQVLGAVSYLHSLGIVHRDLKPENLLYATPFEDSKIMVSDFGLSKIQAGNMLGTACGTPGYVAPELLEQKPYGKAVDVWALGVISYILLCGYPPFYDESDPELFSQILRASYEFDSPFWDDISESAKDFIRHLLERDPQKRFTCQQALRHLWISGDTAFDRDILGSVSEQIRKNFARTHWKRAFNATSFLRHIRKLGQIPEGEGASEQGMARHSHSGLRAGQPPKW
Sequence of CDK16/cyclin Y (PCTAIRE) (Q00536 whole entry): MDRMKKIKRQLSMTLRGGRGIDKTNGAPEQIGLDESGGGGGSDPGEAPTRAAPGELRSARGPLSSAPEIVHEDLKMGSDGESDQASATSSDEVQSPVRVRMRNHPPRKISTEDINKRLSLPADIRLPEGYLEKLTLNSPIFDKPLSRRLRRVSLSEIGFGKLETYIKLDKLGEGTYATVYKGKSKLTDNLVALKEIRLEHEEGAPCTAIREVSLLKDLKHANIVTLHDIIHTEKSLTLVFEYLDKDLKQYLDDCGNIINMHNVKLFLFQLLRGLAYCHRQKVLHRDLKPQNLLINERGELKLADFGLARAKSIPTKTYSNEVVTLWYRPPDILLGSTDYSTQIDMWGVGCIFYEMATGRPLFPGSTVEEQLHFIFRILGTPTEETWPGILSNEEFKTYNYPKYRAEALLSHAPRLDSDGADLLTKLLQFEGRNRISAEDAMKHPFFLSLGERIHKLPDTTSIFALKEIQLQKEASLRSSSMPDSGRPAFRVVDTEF
Sequence of CDK16/cyclin Y (PCTAIRE) (Q8ND76 whole entry partner): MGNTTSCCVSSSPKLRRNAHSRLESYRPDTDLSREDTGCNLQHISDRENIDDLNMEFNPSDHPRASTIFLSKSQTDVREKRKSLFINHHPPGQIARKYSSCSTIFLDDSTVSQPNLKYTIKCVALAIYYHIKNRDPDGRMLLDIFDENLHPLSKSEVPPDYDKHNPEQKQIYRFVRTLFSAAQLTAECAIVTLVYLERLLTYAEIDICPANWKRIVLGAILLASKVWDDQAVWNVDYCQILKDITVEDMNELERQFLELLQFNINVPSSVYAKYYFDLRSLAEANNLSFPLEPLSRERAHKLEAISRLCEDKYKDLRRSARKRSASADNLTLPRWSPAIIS
Sequence of p70S6Kb/RPS6KB2 (Q9UBS0 whole entry): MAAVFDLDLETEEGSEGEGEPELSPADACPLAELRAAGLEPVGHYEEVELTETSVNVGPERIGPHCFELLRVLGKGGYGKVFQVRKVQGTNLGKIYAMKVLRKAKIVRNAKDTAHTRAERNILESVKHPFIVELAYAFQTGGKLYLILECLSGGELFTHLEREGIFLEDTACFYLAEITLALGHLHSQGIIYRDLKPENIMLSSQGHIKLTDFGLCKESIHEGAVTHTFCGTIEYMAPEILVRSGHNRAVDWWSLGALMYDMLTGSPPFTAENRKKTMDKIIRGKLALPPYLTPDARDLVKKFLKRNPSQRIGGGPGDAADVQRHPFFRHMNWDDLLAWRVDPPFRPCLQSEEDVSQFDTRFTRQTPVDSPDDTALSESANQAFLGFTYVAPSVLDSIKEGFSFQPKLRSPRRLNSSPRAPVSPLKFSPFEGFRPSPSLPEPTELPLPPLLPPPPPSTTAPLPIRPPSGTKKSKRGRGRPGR
Sequence of MEKK1 (Q13233 whole entry): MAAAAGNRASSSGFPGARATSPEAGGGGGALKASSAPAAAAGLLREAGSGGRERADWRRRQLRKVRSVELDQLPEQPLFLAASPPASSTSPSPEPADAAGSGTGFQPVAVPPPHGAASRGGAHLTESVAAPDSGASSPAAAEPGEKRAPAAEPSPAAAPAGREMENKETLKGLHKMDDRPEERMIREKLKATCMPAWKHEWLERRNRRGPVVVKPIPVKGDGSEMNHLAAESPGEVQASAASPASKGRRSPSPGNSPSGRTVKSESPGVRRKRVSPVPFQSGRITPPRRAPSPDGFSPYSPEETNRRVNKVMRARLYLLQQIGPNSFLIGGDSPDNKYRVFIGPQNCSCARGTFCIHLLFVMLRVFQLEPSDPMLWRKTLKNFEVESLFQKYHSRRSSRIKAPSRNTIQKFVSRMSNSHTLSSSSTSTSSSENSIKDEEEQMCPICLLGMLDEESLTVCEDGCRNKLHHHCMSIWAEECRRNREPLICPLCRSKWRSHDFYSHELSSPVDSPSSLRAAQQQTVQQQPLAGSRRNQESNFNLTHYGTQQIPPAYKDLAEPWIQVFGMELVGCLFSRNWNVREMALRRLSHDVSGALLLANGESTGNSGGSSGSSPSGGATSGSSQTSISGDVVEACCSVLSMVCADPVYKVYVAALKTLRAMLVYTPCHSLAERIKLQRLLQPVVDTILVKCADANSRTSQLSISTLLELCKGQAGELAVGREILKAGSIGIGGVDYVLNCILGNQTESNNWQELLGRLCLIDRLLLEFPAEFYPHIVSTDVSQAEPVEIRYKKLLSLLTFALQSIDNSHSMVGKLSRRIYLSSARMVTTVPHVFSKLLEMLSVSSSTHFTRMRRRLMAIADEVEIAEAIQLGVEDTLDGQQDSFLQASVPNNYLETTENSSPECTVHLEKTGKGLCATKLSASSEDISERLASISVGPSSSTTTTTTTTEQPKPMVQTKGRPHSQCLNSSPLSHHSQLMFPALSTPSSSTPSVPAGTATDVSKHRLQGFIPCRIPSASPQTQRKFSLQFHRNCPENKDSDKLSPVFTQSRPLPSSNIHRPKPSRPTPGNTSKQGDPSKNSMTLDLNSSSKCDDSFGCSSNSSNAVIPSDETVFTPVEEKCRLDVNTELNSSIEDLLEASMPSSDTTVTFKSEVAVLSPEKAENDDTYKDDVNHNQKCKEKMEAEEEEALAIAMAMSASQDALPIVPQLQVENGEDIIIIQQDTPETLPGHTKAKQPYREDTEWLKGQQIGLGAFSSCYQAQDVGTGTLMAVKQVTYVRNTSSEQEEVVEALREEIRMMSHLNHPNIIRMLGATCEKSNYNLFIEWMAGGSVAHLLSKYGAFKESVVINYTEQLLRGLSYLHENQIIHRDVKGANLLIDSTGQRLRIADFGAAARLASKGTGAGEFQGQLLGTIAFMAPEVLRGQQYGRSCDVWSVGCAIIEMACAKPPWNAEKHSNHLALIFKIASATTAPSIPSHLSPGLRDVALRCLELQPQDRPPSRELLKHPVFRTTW
Sequence of STK25/YSK1 (O00506 whole entry): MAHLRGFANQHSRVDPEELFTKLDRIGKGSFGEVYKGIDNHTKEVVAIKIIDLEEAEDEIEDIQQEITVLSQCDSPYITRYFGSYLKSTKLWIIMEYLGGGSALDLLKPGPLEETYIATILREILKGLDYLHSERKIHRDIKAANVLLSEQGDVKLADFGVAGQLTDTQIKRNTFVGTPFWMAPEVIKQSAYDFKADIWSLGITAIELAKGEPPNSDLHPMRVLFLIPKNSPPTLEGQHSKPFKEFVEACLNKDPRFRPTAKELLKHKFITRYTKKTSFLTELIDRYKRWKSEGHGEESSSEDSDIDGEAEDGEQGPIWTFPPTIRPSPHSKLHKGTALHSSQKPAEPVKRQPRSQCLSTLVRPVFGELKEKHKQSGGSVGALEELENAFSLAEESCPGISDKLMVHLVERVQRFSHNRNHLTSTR

COc1cc(-c2cncc(-c3ccc(N4CCN(C)CC4)cc3)c2C)cc(F)c1C(N)=O [Compound 26a, 2-Fluoro-6-methoxy-4-(4-methyl-5-(4-(4-methylpiperazin-1-yl)phenyl)pyridin-3-yl)benzamide]
% enzyme activity (CAMK1b): 95.63%
remaining activity at 1 µM (c-Kit): 74.1%
% enzyme activity (GRK2): 103.58%
remaining activity at 1 µM (MST2/STK3): 95.6%
remaining activity at 1 µM (RAF1): 78.7%
% enzyme activity (MEKK1): 92.92%
% enzyme activity at 1 μM (ARAF): 29.3% and 28.8%
% enzyme activity (CDK16/cyclin Y (PCTAIRE)): 93.35%
% enzyme activity (STK25/YSK1): 94.98%
% enzyme activity (p70S6Kb/RPS6KB2): 97.21%
remaining activity at 1 µM (CDK2/cyclin E2): 108%
remaining activity at 1 µM (PKCepsilon): 99.8%
% enzyme activity (ERK2/MAPK1): 91.58%
remaining activity at 1 µM (ERN2/IRE2): 97.5%

COc1cc(-c2cncc(-c3ccc(N4C[C@@H](C)N(C)[C@@H](C)C4)cc3)c2C)cc(F)c1C(N)=O [Compound 26c, 2-Fluoro-6-methoxy-4-(4-methyl-5-(4-((3R,5S)-3,4,5-trimethylpiperazin-1-yl)phenyl)pyridin-3-yl)benzamide]
% enzyme activity (CAMK1b): 99.02%
remaining activity at 1 µM (c-Kit): 75.8%
% enzyme activity (GRK2): 99.17%
remaining activity at 1 µM (MST2/STK3): 102%
remaining activity at 1 µM (RAF1): 85.5%
% enzyme activity (MEKK1): 97.31%
% enzyme activity at 1 μM (ARAF): 48.1% and 43.3%
% enzyme activity (CDK16/cyclin Y (PCTAIRE)): 92.26%
% enzyme activity (STK25/YSK1): 94.06%
% enzyme activity (p70S6Kb/RPS6KB2): 99.09%
remaining activity at 1 µM (CDK2/cyclin E2): 95%
remaining activity at 1 µM (PKCepsilon): 106%
% enzyme activity (ERK2/MAPK1): 87.49%
remaining activity at 1 µM (ERN2/IRE2): 98.9%
